In ChEMBL document CHEMBL5365432, “Anticancer Activities of DNA-Alkylating Pyrrole-Imidazole Polyamide Analogs Targeting RUNX Transcription Factors against p53-Mutated Pancreatic Cancer PANC-1 Cells” (J Med Chem, 2023):
One block for each compound: values may come before it. Activity calls are given as the source filed them. The calls are words filed in the database; no cut-off is given here.

How the values were obtained:
PANC-1 [1] = assay: Induction of apoptosis in human PANC-1 cells assessed as necrotic cells at 3 uM incubated for 72 hrs by Annexin V-FITC/PI staining based flow cytometry (reference value: 1.2 %); type: functional
PANC-1 [2] = assay: Anti-cancer activity against human PANC-1 cells xenografted in CB17.Cg-PrkdcscidLystbg-j/CrlCrlj mouse assessed as reduction in tumor volume at 5 mg/kg, iv administered twice a week for 3 weeks; type: functional, organism-based
[3] = Cytotoxicity against human hTERT-HPNE cells assessed as cell viability at 3 uM incubated for 3 days by colorimetric assay relative to control; type: toxicity, cell-based; settings: time 3 day, read-out: Activity
PANC-1 [4] = assay: Induction of apoptosis in human PANC-1 cells assessed as suppression of BCL11A mRNA level at 3 uM incubated for 48 hrs by RT-qPCR analysis; type: functional, cell-based
PANC-1 [5] = assay: Induction of apoptosis in human PANC-1 cells assessed as upregulation of TAp63 mRNA level at 3 uM incubated for 48 hrs by RT-qPCR analysis; type: functional, cell-based
DNA [6] = assay: Binding affinity to DNA (unknown origin) assessed as DNA alkylation at RUNX-binding site at 150 uM incubated for 18 hrs by HPLC analysis; type: nucleic-acid assay
PANC-1 [7] = assay: Cytotoxicity against human PANC-1 cells assessed as cell viability at 3 uM incubated for 3 days by colorimetric assay relative to control; type: functional; settings: PANC-1, 72 h, time 3 day, read-out: Activity
DNA [8] = assay: Binding affinity to DNA (unknown origin) assessed as formation of DNA alkylation product at 150 uM incubated for 18 hrs measured after 20 mins by HPLC/MALDI-TOF MS analysis; type: nucleic-acid assay; settings: time 18.33 hrs
PANC-1 [9] = assay: Induction of apoptosis in human PANC-1 cells assessed as early apoptotic cells at 3 uM incubated for 72 hrs by Annexin V-FITC/PI staining based flow cytometry (reference value: 1.5 %); type: functional
[10] = Toxicity in CB17.Cg-PrkdcscidLystbg-j/CrlCrlj mouse xenografted with human PANC-1 cells assessed as body weight loss at 5 mg/kg, iv administered twice a week for 3 weeks; type: organism-based; settings: in vivo, 504 h
PANC-1 [11] = assay: Induction of apoptosis in human PANC-1 cells assessed as increase in phosphorylated p53 protein level at S46 residue at 3 uM incubated for 72 hrs by proteomic profiling array; type: functional, cell-based
PANC-1 [12] = assay: Induction of apoptosis in human PANC-1 cells assessed as increase in phosphorylated p53 protein level at S15 residue at 3 uM incubated for 72 hrs by proteomic profiling array; type: functional, cell-based
PANC-1 [13] = assay: Induction of apoptosis in human PANC-1 cells assessed as late apoptotic cells at 3 uM incubated for 72 hrs by Annexin V-FITC/PI staining based flow cytometry (reference value: 2.9 %); type: functional
PANC-1 [14] = assay: Induction of apoptosis in human PANC-1 cells assessed as increase in phosphorylated p53 protein level at S392 residue at 3 uM incubated for 72 hrs by proteomic profiling array; type: functional, cell-based
PANC-1 [15] = assay: Anti-cancer activity against human PANC-1 cells xenografted in CB17.Cg-PrkdcscidLystbg-j/CrlCrlj mouse assessed as fold change in tumor volume at 1 mg/kg, iv administered twice a week for 3 weeks relative to gemcitabine; type: functional
PANC-1 [16] = assay: Induction of apoptosis in human PANC-1 cells assessed as upregulation of TAp73 mRNA level at 3 uM incubated for 48 hrs by RT-qPCR analysis; type: functional, cell-based
PANC-1 [17] = assay: Induction of apoptosis in human PANC-1 cells assessed as viable cells at 3 uM incubated for 72 hrs by Annexin V-FITC/PI staining based flow cytometry (reference value: 94.3 %); type: functional; settings: read-out: Activity

SMILES: CN(C)CCCNC(=O)c1nc(NC(=O)c2nc(NC(=O)c3cc(NC(=O)c4nc(NC(=O)CCCNC(=O)c5cc(NC(=O)c6cc(NC(=O)c7cc(NC(=O)c8cc(NC(=O)CCNC(=O)CCCc9ccc(N(CCCl)CCCl)cc9)cn8C)cn7C)cn6C)cn5C)cn4C)cn3C)cn2C)cn1C
Activity (PANC-1 [1]): 1.6%
Activity (PANC-1 [2]): Active
viability at 72 h, 3 µM [3]: 82%
Activity (PANC-1 [4]): Active
Activity (PANC-1 [5]): Active
Activity (DNA [6]): Active
viability at 3 µM (PANC-1 [7]): 85%
Activity (DNA [8]): Active
Activity (PANC-1 [9]): 10.8%
Activity [10]: Non-Toxic
Activity (PANC-1 [11]): Active
Activity (PANC-1 [12]): Active
Activity (PANC-1 [13]): 9.1%
Activity (PANC-1 [14]): Active
fold change (FC) (PANC-1 [15]): 50
Activity (PANC-1 [16]): Active
viability at 3 µM (PANC-1 [17]): 78.5%

SMILES: CN(C)CCCNC(=O)c1cc(NC(=O)c2cc(NC(=O)c3cc(NC(=O)c4cc(NC(=O)CCCNC(=O)c5nc(NC(=O)c6cc(NC(=O)c7nc(NC(=O)c8nc(NC(=O)CCNC(=O)CCCc9ccc(N(CCCl)CCCl)cc9)cn8C)cn7C)cn6C)cn5C)cn4C)cn3C)cn2C)cn1C
Activity (PANC-1 [1]): 2.4%
Activity (PANC-1 [2]): Active
viability at 72 h, 3 µM [3]: 73.8%
Activity (PANC-1 [4]): Active
Activity (PANC-1 [5]): inactive
Activity (DNA [6]): Active
viability at 3 µM (PANC-1 [7]): 67.7%
Activity (DNA [8]): Active
Activity (PANC-1 [9]): 15%
Activity [10]: Non-Toxic
Activity (PANC-1 [11]): Active
Activity (PANC-1 [12]): Active
Activity (PANC-1 [13]): 14%
Activity (PANC-1 [14]): Active
fold change (FC) (PANC-1 [15]): 50
Activity (PANC-1 [16]): Active
viability at 3 µM (PANC-1 [17]): 68.7%

SMILES: CN(C)CCCNC(=O)c1cc(NC(=O)c2cc(NC(=O)c3cc(NC(=O)c4cc(NC(=O)CCCNC(=O)c5nc(NC(=O)c6nc(NC(=O)c7cc(NC(=O)c8nc(NC(=O)CCNC(=O)CCCc9ccc(N(CCCl)CCCl)cc9)cn8C)cn7C)cn6C)cn5C)cn4C)cn3C)cn2C)cn1C
Activity (PANC-1 [1]): 1.9%
Activity (PANC-1 [2]): Active
viability at 72 h, 3 µM [3]: 79.5%
Activity (PANC-1 [4]): Active
Activity (PANC-1 [5]): inactive
Activity (DNA [6]): inactive
viability at 3 µM (PANC-1 [7]): 74.7%
Activity (DNA [8]): Active
Activity (PANC-1 [9]): 12.5%
Activity [10]: Non-Toxic
Activity (PANC-1 [11]): Active
Activity (PANC-1 [12]): Active
Activity (PANC-1 [13]): 12.4%
Activity (PANC-1 [14]): Active
Activity (PANC-1 [16]): Active
viability at 3 µM (PANC-1 [17]): 73.1%

Activity (DNA [6]): inactive
Activity (DNA [8]): Active
SMILES: CN(C)CCCNC(=O)c1nc(NC(=O)c2cc(NC(=O)c3nc(NC(=O)c4nc(NC(=O)CCCNC(=O)c5cc(NC(=O)c6cc(NC(=O)c7cc(NC(=O)c8cc(NC(=O)CCNC(=O)CCCc9ccc(N(CCCl)CCCl)cc9)cn8C)cn7C)cn6C)cn5C)cn4C)cn3C)cn2C)cn1C
